From patent publication US20100119529A1, “ELASTIN-LIKE POLYMER DELIVERY VEHICLES” (priority 2006, published 2010)

Key:
[1] = system: MCF-7 human breast cancer cells; experiment: Cytotoxicity test, XTT assay; type: cell-based; parameters: Average (XTT metabolic signal): unit not given here; conditions: for IC50: 74 hr incubation, XTT
Procedure: MCF-7 human breast cancer cells (ATCC HTB-22) were plated in 96-well plates at an initial density of 5000 cells per well in 90 μL of RMPI 1640 supplemented with 10% fetal bovine serum, 100 IU penicillin, and 100 μg/mL streptomycin, 2 mM L-glutamine, and maintained at 37° C. and 5% CO2 atmosphere. After 24 hr, stock solutions of 17-GAOH in DMSO and GA-(VKG)8ELP1-120 were diluted 10-fold with growth media and added to wells (6 wells) as […] (1% v/v final DMSO concentration). The cells were incubated with the compounds for 74 hr and the metabolic rate was determined using an XTT™ assay kit (Sigma) according to the manufacturer's instructions. The concentrations inhibiting cell growth by 50% (IC50) were determined by fixed Hill slope regression with SIGMA PLOT™ 2004 (Systat Software, Inc.).

mouse mammary tumors = conditions: 43° C. hyperthermia; cited from earlier work

Compound	IC50 ([1]; test 1)	Average (XTT metabolic signal) ([1]; test 1, final concentration 0.1 nM)	Average (XTT metabolic signal) ([1]; test 1, final concentration 1 nM)	Average (XTT metabolic signal) ([1]; test 1, final concentration 10 nM)	Average (XTT metabolic signal) ([1]; test 1, final concentration 100 nM)	Average (XTT metabolic signal) ([1]; test 1, final concentration 1,000 nM)	Average (XTT metabolic signal) ([1]; test 1, final concentration 10,000 nM)	IC50 ([1]; test 2)	Average (XTT metabolic signal) ([1]; test 2, final concentration 50 nM)	Average (XTT metabolic signal) ([1]; test 2, final concentration 100 nM)	Average (XTT metabolic signal) ([1]; test 2, final concentration 250 nM)	Average (XTT metabolic signal) ([1]; test 2, final concentration 500 nM)	Average (XTT metabolic signal) ([1]; test 2, final concentration 1,000 nM)	Average (XTT metabolic signal) ([1]; test 2, final concentration 2,000 nM)	increase of thermal enhancement ratio (TER) (mouse mammary tumors)
CO[C@H]1/C=C\C=C(/C)C(=O)NC2=CC(=O)C(NCCO)=C(C[C@@H](C)C[C@H](OC)[C@H](O)[C@@H](C)/C=C(\C)[C@@H]1OC(N)=O)C2=O [17-HEA-DMGA, 17-β-hydroxyethylamino-17-demethoxygeldanamycin]	855 nM	1158	1288	1274	1588	344	114	731 nM	788.5	999.7	774.3	515.0	297.5	46.9	–
N.N.[Cl][Pt][Cl] [Cisplatin]	–	–	–	–	–	–	–	–	–	–	–	–	–	–	1.4-5.0 fold
